This is an account of results in the Deep4Chem optical property database.

A short description of the data set: solvent given as SMILES.

The structures appear in SMILES notation.

Regarding `COC(=O)c1ccc(C#Cc2ccc(N(C)C)cc2)cc1`, the absorption maximum (in C1CCCCC1) is reported as 359.51 nm; the absorption maximum (in C1CCOC1) came to 361.89 nm; the absorption maximum (in C1COCCO1) is 360.5 nm; the absorption maximum (in CC1CCCO1) was 354.5 nm; the absorption maximum (in CC#N) is on record as 360.5 nm; the absorption maximum (in CC(C)=O) turned out to be 362 nm. Moreover, the absorption maximum is reported as 364.5 nm (in CC(C)CC(C)(C)C); 360.5 nm (in CC(C)O); 365.5 nm (in CCCCCCCCCCCCCCCC); 370.49 nm (in CCCCCCCCCCCCCCCCCl); 357 nm (in CCOC(C)=O); 354.5 nm (in CCOCC). In addition, the absorption maximum is on record as 367.5 nm (in CN(C)C=O), 359 nm (in CO), 370 nm (in CS(C)=O) and 369.49 nm (in Cc1ccccc1).

In turn, `CC(C)(C)c1ccc2oc3nc4oc5ccc(-n6c7ccc(C(C)(C)C)cc7c7cc(C(C)(C)C)ccc76)cc5c4cc3c2c1` showed an absorption maximum (in ClC(Cl)Cl) of 346 nm.

As for `O=c1oc2ccccc2cc1-c1nc2ccccc2o1`, the absorption maximum is, setting by setting: (in C1CCOC1) 354 nm; (in C1COCCO1) 357 nm; (in CC1CCCCC1) 356 nm; (in CC#N) 352 nm; (in CC(C)=O) 352 nm; (in CC(C)CO) 353 nm. The absorption maximum runs as follows: (in CC(C)O) 354 nm; (in CCOC(C)=O) 352 nm; (in CN(C)C=O) 352 nm; (in CO) 352 nm; (in CS(C)=O) 354 nm; (in Cc1ccccc1) 360 nm. The absorption maximum is, setting by setting: (in ClC(Cl)(Cl)Cl) 360 nm; (in ClC(Cl)Cl) 356 nm; (in OCCO) 354 nm.

For the compound `COc1ccc(O)c(C=O)c1`, the absorption maximum by setting is: (in CO) 359 nm; (in ClC(Cl)Cl) 364 nm.

Where the note is “in CC#N”, `CN(C)c1ccc(-c2nc3nc4ccccc4nc3n2-c2ccc(C(C)(C)C)cc2)cc1` registered an absorption maximum of 411 nm.

For `Cc1cc(=O)[nH]c(=O)[nH]1`, the absorption maximum (in CC#N) is on record as 256 nm.

As for `CN(C)c1ccc(C2=Cc3ccccc3P2(=O)c2ccccc2)cc1` (stereo unspecified), the absorption maximum (in ClCCl) turned out to be 413 nm.

Regarding `COC(=O)/C=C/c1sc(-c2ccc(N(C)C)cc2)cc1N`, for the setting “in CC#N”, the absorption maximum was 419 nm.

Regarding `CCOC(=O)c1cc(C(=O)OCC)c2cccc(OCc3ccccc3)c2n1`, where the note is “in CCO”, the absorption maximum turned out to be 366 nm.

`COc1ccc2c3c(c4ccc(OC)cc4c2c1)C(C)(C)c1cc(-c2ccccc2)ccc1-3` gave an absorption maximum (in C1CCCCC1) of 389 nm.

On to `CCOc1ccc2c(-c3nc(-c4cccc(Br)c4)no3)cc(=O)oc2c1`, for which the absorption maximum (in CCO) is reported as 388 nm and the absorption maximum (in ClC(Cl)Cl) worked out at 403 nm.

In turn, `COc1ccc(-c2nc3c([nH]2)=C2C=C(Cl)S[C@@]2(C)[C@]2(C)SC(Cl)=CC=32)cc1` showed an absorption maximum (in CC#N) of 295 nm.

Turning to `CCCC(=O)c1c2c(c(C(=O)CCC)c3c1OC(CC(=O)OC)(C(=O)OC)O3)OCO2`, the absorption maximum by setting is: (in CC#N) 423 nm; (in CCCCCC) 413 nm; (in CCO) 428 nm; (in CO) 428 nm; (in ClCCl) 425 nm.

Turning to `Clc1ccc(/C=C(\c2ccccc2)c2nc3ccccc3s2)cc1`, the absorption maximum is, setting by setting: (in C1CCCCC1) 340 nm; (in CO) 340 nm.

With `COc1ccc(/C=C/C2=[O+][B-](F)(F)OC(/C=C/c3ccc(OC)c4ccccc34)=C2c2ccccc2)c2ccccc12`, the absorption maximum was 550 nm (in CC#N); 549 nm (in CC(C)=O); 542 nm (in CCOC(C)=O); 540 nm (in CCOCC); 542 nm (in ClC(Cl)(Cl)Cl); 556 nm (in ClCCl).

On to `O=Cc1ccc(C#CC(C#Cc2ccc(C=O)s2)=Cc2ccc(C=C(C#Cc3ccc(C=O)s3)C#Cc3ccc(C=O)s3)s2)s1`, for which the absorption maximum (in ClC(Cl)Cl) is 524 nm.

Consider `CN(C)c1cccc2c1ccc1c(=O)oc(-c3ccc(C(F)(F)F)cc3)cc12`, for which the absorption maximum by setting is: (in CC(C)=O) 392 nm; (in CCCCCCCCO) 395 nm; (in CCCCO) 394 nm; (in CCCO) 393 nm; (in CCO) 393 nm; (in CCOC(C)=O) 393 nm. Besides, the absorption maximum (in CN(C)C=O) turned out to be 395 nm, the absorption maximum (in CO) worked out at 391 nm and the absorption maximum (in ClC(Cl)Cl) is 395 nm.

Consider `C=CCNc1ccc2c(ccc3oc4cc(=[N+](C)C)ccc-4nc32)c1`, for which the absorption maximum is 597 nm (in CC#N), 601 nm (in CCO), 610 nm (in ClCCl) and 579 nm (in O).

In the case of `N#Cc1c(N2CCCCC2)cc(-c2cccc3ccccc23)c2c1-c1ccccc1C2=O`, the absorption maximum (in C1CCOC1) came out at 390 nm.

Compound `c1ccc(-c2nnc(-c3cc(-c4nnc(-c5ccccc5)o4)c(-n4c5ccccc5c5ccccc54)cc3-n3c4ccccc4c4ccccc43)o2)cc1` gave an absorption maximum (in Cc1ccccc1) of 370 nm.

As for `O=Cc1ccc(-c2ccc(O)c(-c3nc4ccccc4s3)c2)o1`, the absorption maximum (in CCO) came out at 341 nm.

The compound `CCCC1(CCC)c2cc(-c3ccc(C(C)(C)C)cc3)ccc2-c2ccc(-c3ccc4c(c3)C(CCC)(CCC)c3cc(-c5ccc6c(c5)C(CCC)(CCC)c5cc(-c7ccc(C(C)(C)C)cc7)ccc5-6)ccc3-4)cc21` gave an absorption maximum (in C1CCCCC1) of 362 nm.

As to `CC1=[N+]2C(=C(Oc3ccc4c(c3)CC[C@@H]3[C@@H]4CC[C@]4(C)C(=O)CC[C@@H]34)c3ccc(C)n3[B-]2(F)F)C=C1c1cc2n(c1)[B-](F)(F)[N+]1=CC=CC1=C2c1c(C)cc(C)cc1C`, the absorption maximum (in C1CCCCC1) was found to be 579.5 nm and the absorption maximum (in CCOC(C)=O) is listed as 574 nm.

`CCCCN(CCCC)c1ccc(C#Cc2cc(C#Cc3ccc([N+](=O)[O-])cc3)c(C#Cc3ccc([N+](=O)[O-])cc3)cc2C#Cc2ccc(N(CCCC)CCCC)cc2)cc1` registered an absorption maximum (in ClCCl) of 417 nm.

Turning to `CC1(C)C(/C=C/C2=C(c3ccc(C(=O)O)cc3)C(=C/C=C3/N(CCCS(=O)(=O)[O-])c4ccc5ccccc5c4C3(C)C)/CCC2)=[N+](CCCS(=O)(=O)[O-])c2ccc3ccccc3c21`, where the note is “in CO”, the absorption maximum is on record as 800 nm.

For `O=C1/C(=C/C=C/c2cc3c4c(c2)CCCN4CCC3)CC/C1=C\C=C\c1cc2c3c(c1)CCCN3CCC2`, the absorption maximum is 510 nm (in CC#N); 515 nm (in CC(C)=O); 535 nm (in CC(C)O); 457 nm (in CCCCCC); 543 nm (in CCCCO); 541 nm (in CCCO). The absorption maximum reads like this: (in CCO) 538 nm; (in CCOC(C)=O) 495 nm; (in CCOCC) 494 nm; (in CN(C)C=O) 532 nm; (in CO) 523 nm; (in CS(C)=O) 539 nm. Also, the absorption maximum stood at 505 nm (in Cc1ccccc1); 529 nm (in ClCCl); 584 nm (in OCC(F)(F)F); 530 nm (in S=C=S); 510 nm (in c1ccccc1); 534 nm (in c1ccncc1).
